Reference: PMC4627800, “Allelic Variation of Cytochrome P450s Drives Resistance to Bednet Insecticides in a Major Malaria Vector” (PLoS Genetics, 2015)
Read-outs that look alike come from different tables or passages of the source. Marks after values point to notes of the source that are not given here.

Key:
[1] = molecular target: T1, MALCYP6P9a (Anopheles funestus, UniProt B5AII6); experiment: Pyrethroid depletion (metabolism) assay with recombinant enzyme; type: biochemical; details: 20μM insecticide, 1 hour, vs -NADPH
Method: (§7) Membrane expressing recombinant CYP6P9a/-b and AgCPR, and reconstituted cytochrome b5 were added to the side of the tube and pre-incubated for 5 minutes at 30°C, with shaking at 1,200 rpm to activate the membrane. 20μM of test insecticide was then added into the final volume of 0.2ml (~2.5% v/v methanol), and reaction started by vortexing at 1,200 rpm and 30°C for 1 hour. Reactions were quenched with 0.1ml ice-cold methanol and incubated for 5 more minutes. Tubes were then centrifuged at 16,000 rpm and 4°C for 15 minutes, and 150μl of supernatant transferred into HPLC vials for analysis. Reactions were carried out in triplicates with experimental samples (+NADPH) and negative controls (-NADPH). 100μl of sample was loaded onto an isocratic mobile phase (90:10 v/v methanol to water) with a flow rate of 1ml/min, monitoring wavelength of 226nm and peaks separated with a 250mm C18 column (Acclaim 120, Dionex) on Agilent 1260 Infinity at 23°C. Enzyme activity was calculated as percentage depletion (the difference in the amount of insecticide(s) remaining in the +NADPH tubes compared with the–NADPH) and a t-test used for statistical analysis.

[2] = molecular target: T2, BENCYP6P9a (Anopheles funestus, UniProt A0A0S1RZ75); experiment: as above; type: biochemical; details: 20μM insecticide, 1 hour, vs -NADPH
Method: as §7

[3] = molecular target: FANGCYP6P9b (Anopheles funestus, UniProt A0A0S1RZ61); experiment: as above; type: biochemical; details: 20μM insecticide, 1 hour, vs -NADPH
Method: To establish whether allelic variation in CYP6P9a and CYP6P9b impact their metabolic activities toward insecticides, pyrethroids were screened with the recombinant enzymes from these genes. […] Membrane expressing recombinant CYP6P9a/-b and AgCPR, and reconstituted cytochrome b5 were added to the side of the tube and pre-incubated for 5 minutes at 30°C, with shaking at 1,200 rpm to activate the membrane. 20μM of test insecticide was then added into the final volume of 0.2ml (~2.5% v/v methanol), and reaction started by vortexing at 1,200 rpm and 30°C for 1 hour. Reactions were quenched with 0.1ml ice-cold methanol and incubated for 5 more minutes. Tubes were then centrifuged at 16,000 rpm and 4°C for 15 minutes, and 150μl of supernatant transferred into HPLC vials for analysis. Reactions were carried out in triplicates with experimental samples (+NADPH) and negative controls (-NADPH). 100μl of sample was loaded onto an isocratic mobile phase (90:10 v/v methanol to water) with a flow rate of 1ml/min, monitoring wavelength of 226nm and peaks separated with a 250mm C18 column (Acclaim 120, Dionex) on Agilent 1260 Infinity at 23°C. Enzyme activity was calculated as percentage depletion (the difference in the amount of insecticide(s) remaining in the +NADPH tubes compared with the–NADPH) and a t-test used for statistical analysis.

[4] = molecular target: T3, BENCYP6P9b (Anopheles funestus, UniProt A0A0S1S7Y0); experiment: as above; type: biochemical; details: 20μM insecticide, 1 hour, vs -NADPH
[5] = molecular target: T4, UGANCYP6P9b (Anopheles funestus, UniProt A0A0S1S7Y0); experiment: as above; type: biochemical; details: 20μM insecticide, 1 hour, vs -NADPH
[6] = molecular target: T2, BENCYP6P9a; experiment: Steady-state kinetics of pyrethroid metabolism; type: biochemical
Method: (§1) Reactions were performed in triplicates both for +NADPH (experimental tubes) and–NADPH (negative control). K m and V max were established from the plot of substrate concentrations against the initial velocities and fitting of the data to the Michaelis-Menten module using the least squares non-linear regression, as described in the GraphPad Prism 6.03 Software (GraphPad Inc., La Jolla, CA, USA).

[7] = molecular target: T3, BENCYP6P9b; experiment: Steady-state kinetics of pyrethroid metabolism; type: biochemical
Method: as §1

[8] = molecular target: T1, MALCYP6P9a; experiment: Steady-state kinetics of pyrethroid metabolism; type: biochemical
Method: as §1

[9] = molecular target: MALCYP6P9b (Anopheles funestus, UniProt B5AII7); experiment: Steady-state kinetics of pyrethroid metabolism; type: biochemical
Method: as §1

[10] = molecular target: UGANCYP6P9a (Anopheles funestus, UniProt B5AII6); experiment: Steady-state kinetics of pyrethroid metabolism; type: biochemical
Method: as §1

[11] = molecular target: T4, UGANCYP6P9b; experiment: Steady-state kinetics of pyrethroid metabolism; type: biochemical
Method: as §1

[12] = molecular target: Asn^384Ser_CYP6P9b (Anopheles funestus, UniProt B5AII7, N384S); experiment: Kinetics of permethrin metabolism by CYP6P9b mutants; type: biochemical
Method: as §1
(§2) In addition, fluorescent probes were also screened to establish differences in the O-dealkylation activity of the mutants compared with the wild type enzyme. All in vitro and kinetic analyses were conducted as described above. However, as different mutants expressed with varying concentrations all assays were conducted within linear range, with the amount of enzyme and time which produced highest activities.

[13] = molecular target: Asp^335Glu_CYP6P9b (Anopheles funestus, UniProt B5AII7, D335E); experiment: as above; type: biochemical
Method: as §1, §2

[14] = molecular target: Pro^401Ala_CYP6P9b (Anopheles funestus, UniProt B5AII7, P401A); experiment: as above; type: biochemical
Method: as §1, §2

[15] = system: Asp^335Glu mutant of MALCYP6P9b; details: 20μM insecticide
Method: (§3) To establish whether allelic variation in CYP6P9a and CYP6P9b impact their metabolic activities toward insecticides, pyrethroids were screened with the recombinant enzymes from these genes. […] Membrane expressing recombinant CYP6P9a/-b and AgCPR, and reconstituted cytochrome b5 were added to the side of the tube and pre-incubated for 5 minutes at 30°C, with shaking at 1,200 rpm to activate the membrane. 20μM of test insecticide was then added into the final volume of 0.2ml (~2.5% v/v methanol), and reaction started by vortexing at 1,200 rpm and 30°C for 1 hour. Reactions were quenched with 0.1ml ice-cold methanol and incubated for 5 more minutes. Tubes were then centrifuged at 16,000 rpm and 4°C for 15 minutes, and 150μl of supernatant transferred into HPLC vials for analysis. Reactions were carried out in triplicates with experimental samples (+NADPH) and negative controls (-NADPH). 100μl of sample was loaded onto an isocratic mobile phase (90:10 v/v methanol to water) with a flow rate of 1ml/min, monitoring wavelength of 226nm and peaks separated with a 250mm C18 column (Acclaim 120, Dionex) on Agilent 1260 Infinity at 23°C.
(§4) In addition, fluorescent probes were also screened to establish differences in the O-dealkylation activity of the mutants compared with the wild type enzyme. All in vitro and kinetic analyses were conducted as described above. […]

[16] = system: Val^109Ile mutant of MALCYP6P9b; details: 20μM insecticide
Method: as §3, §4

[17] = system: transgenic flies over-expressing FANGCYP6P9a; details: 2% permethrin paper
Method: (§5) Primers used for this PCR are given in S8 Table. PCR conditions, cloning techniques, construction of transgenic flies and expression of candidate genes was conducted as described in previous studies, with more details provided in S1 Text. For control group, flies with the same background as the UAS transgenic lines but devoid of the UAS construct with the candidate gene were crossed with the driver Actin5C-GAL4 line to generate Actin5C-GAL4-null flies.
(§6) These papers were then rolled and introduced into 45 cc plastic vials. The vials were then plugged with cotton wool soaked in 5% sucrose. 20–25 (2–4 days old, post-eclosion F1 females) were selected for the bioassays and introduced into the vials. Mortality plus knockdown was scored after 1 hr, 2 hrs, 3 hrs, 6 hrs, 12 hrs and 24 hrs post-exposure to the discriminating dose of the insecticides.

[18] = system: transgenic flies over-expressing FANGCYP6P9b; details: 2% permethrin paper
Method: as §5, §6

[19] = system: transgenic flies over-expressing MALCYP6P9a; details: 2% permethrin paper
Method: as §5, §6

[20] = system: transgenic flies over-expressing MALCYP6P9b; details: 2% permethrin paper
Method: as §5, §6

Structure (SMILES): CC1(C)C(C=C(Cl)Cl)C1C(=O)OCc1cccc(Oc2ccccc2)c1 (stereo not drawn) [permethrin]
- Percentage depletion [1]: 65.38±1.5 %
- Percentage depletion [2]: 66.42±2.23 %
- Percentage depletion [3]: 13.7±4.23%
- Percentage depletion [4]: 89.63±0.63 %
- Percentage depletion [5]: 88.58±3.48 %
- Kcat [6]: 9.37±3.32^a min^-1
- Kcat, fold higher than FANGCYP6P9a ([6]; BENCYP6P9a vs FANGCYP6P9a): 2 fold
- catalytic efficiency, fold higher than FANGCYP6P9a ([6]; BENCYP6P9a vs FANGCYP6P9a): 3 fold
- Kcat [7]: 15.91±5.45^b min^-1
- Kcat, fold higher than FANGCYP6P9b ([7]; BENCYP6P9b vs FANGCYP6P9b): 4 fold
- Kcat [8]: 15.41±6.30^a min^-1
- Km [8]: 18.8 ± 11.8 µM
- Kcat, fold higher than FANGCYP6P9a ([8]; MALCYP6P9a vs FANGCYP6P9a): 3 fold
- catalytic efficiency, fold higher than FANGCYP6P9a ([8]; MALCYP6P9a vs FANGCYP6P9a): 6 fold
- Kcat [9]: 12.38±4.5^b min^-1
- Km [9]: 12.7 ± 2.68 µM
- Kcat, fold higher than FANGCYP6P9b ([9]; MALCYP6P9b vs FANGCYP6P9b): 3 fold
- catalytic efficiency, fold more efficient than FANGCYP6P9b ([9]; MALCYP6P9b vs FANGCYP6P9b): 5 fold
- Kcat [10]: 0.122 ± 0.017 s⁻¹
- Kcat, fold higher than FANGCYP6P9a ([10]; UGANCYP6P9a vs FANGCYP6P9a): 2 fold
- catalytic efficiency, fold higher than FANGCYP6P9a ([10]; UGANCYP6P9a vs FANGCYP6P9a): 3 fold
- Kcat [11]: 8.61±3.40^b min^-1
- Kcat, fold higher than FANGCYP6P9b ([11]; UGANCYP6P9b vs FANGCYP6P9b): 2 fold
- Km [12]: 17.9 ± 0.87 µM
- Km of mutant, fold of Asp^335Glu mutant [12]: 4 fold
- Km of mutant, fold of wrMALCYP6P9b [12]: 2 fold
- Kcat ([12]; Asn^384Ser_CYP6P9b, mean ± S.E.M.): 0.87±0.08*** min^-1
- Kcat of wrMALCYP6P9b, fold of mutant ([12]; wrMALCYP6P9b vs Asn^384Ser): 9 fold
- catalytic efficiency of wrMALCYP6P9b, fold of mutant ([12]; wrMALCYP6P9b vs Asn^384Ser): 20 fold
- Km [13]: 5.19 ± 1.89 µM
- Kcat ([13]; Asp^335Glu_CYP6P9b, mean ± S.E.M.): 0.98±0.12*** min^-1
- Kcat of wrMALCYP6P9b, fold of mutant ([13]; wrMALCYP6P9b vs Asp^335Glu): 8 fold
- catalytic efficiency of wrMALCYP6P9b, fold of mutant ([13]; wrMALCYP6P9b vs Asp^335Glu): 4 fold
- Km [14]: 15.4 ± 6.5 µM
- Kcat ([14]; Pro^401Ala_CYP6P9b, mean ± S.E.M.): 4.21±0.96* min^-1
- catalytic efficiency of wrMALCYP6P9b, fold of mutant ([14]; wrMALCYP6P9b vs Pro^401Ala): 3 fold
- fold less depletion than wrMALCYP6P9b [15]: 2.15 fold
- fold less depletion than wrMALCYP6P9b [16]: 2 fold
- mortality ([17]; 2 hrs): 30%
- mortality ([17]; 3 hrs): ~ 60%
- mortality ([17]; 6 hrs): ~ 70%
- mortality ([18]; 12 hrs): 55%
- mortality ([18]; 24 hrs): ~ 60%
- mortality ([19]; 2 hrs): less than 10%
- mortality ([19]; 3 hrs): < 30%
- mortality ([19]; 6 hrs): < 45%
- mortality ([20]; 12 hrs): < 30%
- mortality ([20]; 24 hrs): ~ 30%
